# Measurements taken from patent US10209240B2, “Predicting human developmental toxicity of pharmaceuticals using human stem-like cells and metabolomic ratios” (STEMINA BIOMARKER DISCOVERY, INC., priority 2012, dated 2019).
# Experiments:
# WA09 hES cells [1] = assay: Phase 2 targeted biomarker assay, ornithine/cystine ratio, 9-point dose response; details: for Teratogenicity Potential (μM) O/C Ratio: human, 72 h
# Method in brief: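 WA09 hES cells (≤ passage 40), plated as single cells at 100,000/well on Matrigel in mTeSR1 with 10 μM Y27632, dosed 24 h later with nine 3-fold dilutions, 0.04–300 μM, 0.1% DMSO, for 72 h. Final-24 h spent medium, spiked with 13C6-arginine and filtered (<10 kDa), analysed by LC-HRMS; viability by CellTiter-Fluor.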
# WA09 hES cells [2] = details: for Teratogenicity Potential (μM) Cell Viability: human, 72 h
# hES cells = assay: devTOX computational model predictions (Version 2.0, Version 2.1) from hES cell metabolomics; format: cell-based, human; details: single dose per treatment (Dose column)
# Excerpt: The selection process weighted the predictive capacity of a feature, overall intensity, and peak shape to identify very well behaved features/metabolites that could be measured by targeted LC-MS or even by other detection systems.
# This simplified model is based on a ratio of the reference treatment (DMSO) normalized values of ADMA and cystine.
# [3] = training set; therapeutic peak plasma in vivo concentration, human; cited from earlier work
# Rodent = details: cited from earlier work; for Rodent prediction: training and test set
# Rabbit = details: training and test set; cited from earlier work
# zebrafish = details: training and test set; weak/moderate and strong teratogens both labeled teratogen; cited from earlier work
# rat whole embryo = details: training and test set; weak/moderate and strong teratogens both labeled teratogen; cited from earlier work
# [4] = training set compounds; summarized from TERIS and Briggs et al. 2011; cited from earlier work
O/C Ratio Prediction (WA09 hES cells [1]),Targeted Biomarker Assay prediction (WA09 hES cells [1]),Classification by o/c ratio in the targeted biomarker assay (WA09 hES cells [1]),SMILES,Teratogenicity Potential (μM) O/C Ratio (WA09 hES cells [1]) [µM],Viability Prediction (WA09 hES cells [2]),Teratogenicity Potential (μM) Cell Viability (WA09 hES cells [2]) [µM],Model Predictions Version 2.0 (hES cells),Model Predictions Version 2.1 (hES cells),Cmax [3] [nM],Rodent prediction (Rodent),Rabbit prediction (Rabbit),ZET prediction (zebrafish),WEC prediction (rat whole embryo),Preclinical in vivo and known human developmental effects [4],"Change in the o/c ratio, also relative to cytotoxicity (WA09 hES cells [1])","Rodent developmental toxicity testing, result in words (Rodent; relation to maternal toxicity where stated)"
TER,TER,–,NC(=O)N1c2ccccc2C=Cc2ccccc21 [Carbamazepine],0.9,NON,>300,Ter,Ter,–,TER,–,TER^t,TER^j,"Craniofacial, central",–,–
NON,NON,misclassified,O=C1NC(=O)C(c2ccccc2)(c2ccccc2)N1 [Diphenylhydantoin],263.3,NON,288.7,Non,Non,–,TER,TER,NON^a,"TER^f,j","Craniofacial, limb,",–,–
TER,TER,–,O=C1CCC(N2C(=O)c3ccccc3C2=O)C(=O)N1 (stereo not drawn) [Thalidomide],0.2,NON,>300,Ter,Ter,12400,NON^a,TER,TER^d,TER^f,"Craniofacial,",change in the o/c ratio indicative of developmental toxicity in the absence of cytotoxicity,did not indicate the compound's teratogenic potential in humans

# More lines, now with the values behind:
SMILES,O/C Ratio Prediction (WA09 hES cells [1]),Targeted Biomarker Assay prediction (WA09 hES cells [1]),Classification by o/c ratio in the targeted biomarker assay (WA09 hES cells [1]),Teratogenicity Potential (μM) O/C Ratio (WA09 hES cells [1]) [µM],Viability Prediction (WA09 hES cells [2]),Teratogenicity Potential (μM) Cell Viability (WA09 hES cells [2]) [µM],Model Predictions Version 2.0 (hES cells),Model Predictions Version 2.1 (hES cells),Cmax [3] [nM],Rodent prediction (Rodent),Rabbit prediction (Rabbit),ZET prediction (zebrafish),WEC prediction (rat whole embryo),Preclinical in vivo and known human developmental effects [4],"Change in the o/c ratio, also relative to cytotoxicity (WA09 hES cells [1])","Rodent developmental toxicity testing, result in words (Rodent; relation to maternal toxicity where stated)"
CC1=C(/C=C/C(C)=C/C=C/C(C)=C\C(=O)O)C(C)(C)CCC1 [13-cis Retinoic Acid],TER,TER,–,0.0007,NON,>300,Ter,Ter,2900,TER,TER,TER^r,TER^s,"Craniofacial, limb, central",–,–
CC1=C(/C=C/C(C)=C/C=C/C(C)=C/C(=O)O)C(C)(C)CCC1 [All-trans Retinoic Acid],TER,TER,–,0.00004,NON,114.5,Ter,Ter,1200,TER,TER,"TER^c,e,r","TER^q,s","Craniofacial, limb, central",change in the o/c ratio indicative of developmental toxicity in the absence of cytotoxicity,–
